In the data set the test system is estrogen receptor (rat uterine cytosol). The data set is described as follows: DSSTox (NCTRER) National Center for Toxicological Research Estrogen Receptor Binding Database.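 For relative binding affinity: ratio of estradiol IC50 over compound IC50 times 100 so estradiol equals 100.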 To be noted: rat uterine cytosol ER competitive binding, RBA. The method, boiled down:
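Relative binding affinity is the ratio of estradiol's IC50 to the test IC50, multiplied by 100, where E2 is 100. IC50s come from displacement of 1 nM radiolabelled E2 from rat uterine cytosol ER by 1 nM–1 mM competitor.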

Inconclusive results are not listed. Active and inactive are the calls of the source.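 Rule for the calls: active = relative estrogen receptor binding affinity above 1E-5, where estradiol scores 100; inconclusive = weak binder, under half inhibition at top dose, or affinity below 1E-5; inactive = no binding seen, affinity zero.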

`C[C@@]12CCC[C@H]1[C@@H]1CCc3cc(O)ccc3[C@H]1CC2`: under “ChemClass_ERB: Steroids With aromatic A ring, active compounds read high”, the relative binding affinity is 13.8%.
As for `OCc1ccccc1`, the result (ChemClass_ERB: Misc) was inactive.
